According to ChEMBL document CHEMBL1201862, “PubChem BioAssay data set” (2004):
Active and inactive are the calls of the source.

Experiments:
Estrogen receptor = target: T1, Estrogen receptor (Homo sapiens, UniProt P03372);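 further: potency for inhibiting coactivator peptide recruitment to the receptor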
T1 sequence (P03372 whole entry): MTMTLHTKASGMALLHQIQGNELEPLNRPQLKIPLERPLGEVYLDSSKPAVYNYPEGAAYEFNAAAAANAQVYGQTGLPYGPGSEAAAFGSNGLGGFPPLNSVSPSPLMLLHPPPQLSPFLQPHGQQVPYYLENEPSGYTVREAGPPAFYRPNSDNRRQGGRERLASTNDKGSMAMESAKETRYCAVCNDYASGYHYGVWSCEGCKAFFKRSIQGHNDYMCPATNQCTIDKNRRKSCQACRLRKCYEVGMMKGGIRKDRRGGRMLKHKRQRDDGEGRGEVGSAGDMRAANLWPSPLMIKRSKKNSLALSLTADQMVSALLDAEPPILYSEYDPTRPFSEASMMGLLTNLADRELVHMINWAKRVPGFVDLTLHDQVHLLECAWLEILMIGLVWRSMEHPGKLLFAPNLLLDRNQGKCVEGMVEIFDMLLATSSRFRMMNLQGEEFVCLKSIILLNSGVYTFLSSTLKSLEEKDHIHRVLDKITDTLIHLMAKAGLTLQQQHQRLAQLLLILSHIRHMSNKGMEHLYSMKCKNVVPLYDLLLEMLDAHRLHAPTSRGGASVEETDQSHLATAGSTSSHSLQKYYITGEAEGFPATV

[1] = target: T2, Tyrosine-protein phosphatase non-receptor type 7 (Homo sapiens, UniProt P35236); format: functional
T2 sequence (P35236 whole entry): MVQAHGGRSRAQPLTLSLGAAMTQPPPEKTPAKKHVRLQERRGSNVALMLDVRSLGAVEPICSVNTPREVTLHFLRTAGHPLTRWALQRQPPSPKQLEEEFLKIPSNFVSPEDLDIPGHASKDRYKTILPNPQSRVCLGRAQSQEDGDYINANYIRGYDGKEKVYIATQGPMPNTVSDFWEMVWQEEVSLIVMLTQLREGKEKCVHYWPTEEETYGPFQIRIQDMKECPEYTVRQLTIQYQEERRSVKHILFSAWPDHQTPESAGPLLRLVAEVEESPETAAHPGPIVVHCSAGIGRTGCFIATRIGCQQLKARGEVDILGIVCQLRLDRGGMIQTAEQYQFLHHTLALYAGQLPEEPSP

[2] = target: Glyceraldehyde-3-phosphate dehydrogenase (Homo sapiens, UniProt P04406)
[3] = target: T3, Dual specificity protein phosphatase 6 (Rattus norvegicus, UniProt Q64346)
T3 sequence (Q64346 whole entry): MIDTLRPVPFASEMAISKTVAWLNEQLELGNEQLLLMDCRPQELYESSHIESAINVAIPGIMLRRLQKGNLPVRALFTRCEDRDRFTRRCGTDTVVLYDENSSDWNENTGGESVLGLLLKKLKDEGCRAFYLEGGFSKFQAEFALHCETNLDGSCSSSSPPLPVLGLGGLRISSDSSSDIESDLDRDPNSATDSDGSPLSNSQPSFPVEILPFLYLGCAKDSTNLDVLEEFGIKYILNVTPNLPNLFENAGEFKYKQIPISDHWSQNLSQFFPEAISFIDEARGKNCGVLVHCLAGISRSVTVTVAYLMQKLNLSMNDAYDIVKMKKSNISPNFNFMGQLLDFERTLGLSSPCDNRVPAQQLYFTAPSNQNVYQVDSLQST

[4] = target: T3, Dual specificity protein phosphatase 6; format: functional
[5] = target: T4, Epstein-Barr nuclear antigen 1 (Epstein-Barr virus (strain B95-8) (HHV-4) (Human herpesvirus 4), UniProt P03211); assay: inhibition of EBV nuclear antigen 1 DNA binding – biochemical, fluorescence polarization, 1536-well, dose response (AID 2381); design: species or system human gammaherpesvirus 4;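 further: fluorescence polarization of a Cy5 DNA probe bound by EBNA-1 protein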
T4 sequence (P03211 whole entry): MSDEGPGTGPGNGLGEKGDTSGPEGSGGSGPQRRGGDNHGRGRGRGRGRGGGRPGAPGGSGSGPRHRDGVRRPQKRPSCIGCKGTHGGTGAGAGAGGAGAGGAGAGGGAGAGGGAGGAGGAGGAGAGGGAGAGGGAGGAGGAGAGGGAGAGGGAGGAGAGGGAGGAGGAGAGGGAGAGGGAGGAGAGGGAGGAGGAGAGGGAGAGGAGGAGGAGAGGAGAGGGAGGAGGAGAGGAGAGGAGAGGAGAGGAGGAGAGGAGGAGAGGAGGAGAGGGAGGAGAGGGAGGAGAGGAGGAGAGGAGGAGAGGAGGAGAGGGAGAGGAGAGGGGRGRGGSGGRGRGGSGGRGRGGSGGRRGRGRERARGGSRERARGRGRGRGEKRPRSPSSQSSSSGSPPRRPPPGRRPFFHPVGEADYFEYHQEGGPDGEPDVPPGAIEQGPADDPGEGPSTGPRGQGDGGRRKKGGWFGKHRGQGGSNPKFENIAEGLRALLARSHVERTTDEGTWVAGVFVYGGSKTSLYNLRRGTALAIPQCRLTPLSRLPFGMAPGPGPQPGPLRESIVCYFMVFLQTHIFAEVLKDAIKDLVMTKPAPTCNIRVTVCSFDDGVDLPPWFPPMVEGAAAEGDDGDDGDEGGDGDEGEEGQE

[6] = target: T5, Lytic switch protein BZLF1 (Epstein-Barr virus (strain B95-8) (HHV-4) (Human herpesvirus 4), UniProt P03206); assay: inhibition of BZLF1 ZTA DNA binding – biochemical, fluorescence polarization, Epstein-Barr virus, 1536-well, counter-screen for EBNA-1 inhibitor project, dose response (AID 2377); design: species or system human gammaherpesvirus 4;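 further: fluorescence polarization of Cy5-labelled ZRE DNA probe bound by purified Zta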
T5 sequence (P03206 whole entry): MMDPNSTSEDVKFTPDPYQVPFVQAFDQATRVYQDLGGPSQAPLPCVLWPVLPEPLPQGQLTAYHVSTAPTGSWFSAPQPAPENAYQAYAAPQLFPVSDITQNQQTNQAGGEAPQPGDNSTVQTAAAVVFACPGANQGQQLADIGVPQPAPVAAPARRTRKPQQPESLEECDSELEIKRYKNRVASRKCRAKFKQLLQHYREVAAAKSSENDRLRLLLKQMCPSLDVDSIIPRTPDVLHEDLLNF

Estrogen receptor beta = Estrogen receptor beta (Homo sapiens, UniProt Q92731);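 further: recombinant ER-beta bound to coactivator SRC1 peptide in presence of estradiol agonist; inhibitors block coactivator peptide binding and lower the FRET signal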
[7] = target: Luciferin 4-monooxygenase (Photinus pyralis, UniProt P08659); assay: Counter Screen for Luciferase-based Assay Positives. [Related pubchem assays: 620, 618, 411 ]
HT-1080 = assay: HT1080 cell viability loss – fluorescence readout (AID 620); format: functional, cell-based; settings: Homo sapiens
[8] = target: Eukaryotic translation initiation factor 4H (Homo sapiens, UniProt Q15056); assay: eIF4H binding inhibition – biochemical, uHTS, fluorescence polarization, translation initiation inhibitor project, primary screen (AID 2012)
[9] = target: Polyadenylate-binding protein 1 (Homo sapiens, UniProt P11940); assay: blockers of PABP interaction with poly(A) – biochemical, fluorescence polarization, […] (AID 2014)
Chain of Polyadenylate-binding protein 1 (P11940 whole entry): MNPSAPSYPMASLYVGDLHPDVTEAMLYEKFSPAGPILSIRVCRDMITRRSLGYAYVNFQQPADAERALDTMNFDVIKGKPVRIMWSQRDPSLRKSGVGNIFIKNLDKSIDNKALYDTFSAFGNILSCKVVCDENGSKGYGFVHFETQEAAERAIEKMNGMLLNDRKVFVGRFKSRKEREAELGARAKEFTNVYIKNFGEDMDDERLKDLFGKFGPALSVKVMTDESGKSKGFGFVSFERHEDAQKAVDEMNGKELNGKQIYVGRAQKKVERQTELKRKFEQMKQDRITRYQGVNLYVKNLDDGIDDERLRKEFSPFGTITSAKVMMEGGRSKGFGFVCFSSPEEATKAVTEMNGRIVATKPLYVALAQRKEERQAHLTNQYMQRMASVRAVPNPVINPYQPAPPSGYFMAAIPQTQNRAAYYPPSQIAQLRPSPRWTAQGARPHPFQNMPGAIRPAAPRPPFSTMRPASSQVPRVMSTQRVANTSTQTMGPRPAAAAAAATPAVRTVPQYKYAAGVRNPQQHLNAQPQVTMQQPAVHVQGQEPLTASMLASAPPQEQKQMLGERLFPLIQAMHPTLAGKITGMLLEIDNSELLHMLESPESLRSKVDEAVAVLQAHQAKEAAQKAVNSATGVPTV

Chain of Glyceraldehyde-3-phosphate dehydrogenase (P04406 whole entry): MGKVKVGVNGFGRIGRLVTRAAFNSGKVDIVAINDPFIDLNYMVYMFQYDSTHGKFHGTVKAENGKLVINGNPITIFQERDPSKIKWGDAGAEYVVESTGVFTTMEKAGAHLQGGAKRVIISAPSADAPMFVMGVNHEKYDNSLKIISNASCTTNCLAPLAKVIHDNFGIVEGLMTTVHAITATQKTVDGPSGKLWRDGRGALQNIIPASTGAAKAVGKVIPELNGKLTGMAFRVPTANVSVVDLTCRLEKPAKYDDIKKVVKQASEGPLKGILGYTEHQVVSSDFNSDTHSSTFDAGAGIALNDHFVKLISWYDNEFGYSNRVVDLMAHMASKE
Chain of Estrogen receptor beta (Q92731 whole entry): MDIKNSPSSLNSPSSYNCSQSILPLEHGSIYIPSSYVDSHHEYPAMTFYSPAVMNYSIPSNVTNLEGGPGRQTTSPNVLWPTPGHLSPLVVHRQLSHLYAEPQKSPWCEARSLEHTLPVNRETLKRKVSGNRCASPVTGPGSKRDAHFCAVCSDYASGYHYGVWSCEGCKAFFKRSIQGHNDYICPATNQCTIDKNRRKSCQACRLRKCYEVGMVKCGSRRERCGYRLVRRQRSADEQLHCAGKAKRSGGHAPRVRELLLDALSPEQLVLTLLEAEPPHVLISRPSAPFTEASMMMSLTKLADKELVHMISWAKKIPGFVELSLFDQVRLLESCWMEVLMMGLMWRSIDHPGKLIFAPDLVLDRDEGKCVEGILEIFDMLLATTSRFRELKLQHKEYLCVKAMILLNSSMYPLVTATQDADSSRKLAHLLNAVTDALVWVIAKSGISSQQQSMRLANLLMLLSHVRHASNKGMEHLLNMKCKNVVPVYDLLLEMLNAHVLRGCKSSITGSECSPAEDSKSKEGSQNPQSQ
Chain of Luciferin 4-monooxygenase (P08659 whole entry): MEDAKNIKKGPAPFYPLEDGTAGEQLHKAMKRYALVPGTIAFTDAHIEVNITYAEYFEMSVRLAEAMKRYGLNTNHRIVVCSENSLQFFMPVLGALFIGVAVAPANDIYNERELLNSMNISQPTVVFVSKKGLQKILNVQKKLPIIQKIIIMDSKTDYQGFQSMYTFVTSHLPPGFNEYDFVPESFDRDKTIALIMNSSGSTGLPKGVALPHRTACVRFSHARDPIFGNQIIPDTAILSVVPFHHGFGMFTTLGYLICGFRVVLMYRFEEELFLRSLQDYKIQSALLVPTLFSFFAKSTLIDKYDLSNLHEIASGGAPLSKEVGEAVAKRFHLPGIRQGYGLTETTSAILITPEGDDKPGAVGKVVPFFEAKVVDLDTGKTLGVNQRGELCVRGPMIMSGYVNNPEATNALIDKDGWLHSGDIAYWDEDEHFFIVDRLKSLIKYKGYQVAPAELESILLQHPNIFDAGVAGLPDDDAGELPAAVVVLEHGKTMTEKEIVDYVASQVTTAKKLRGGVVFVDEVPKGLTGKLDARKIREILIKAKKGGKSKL

CCN=c1ccc(Br)cc(C(=O)/C=C/c2ccccc2Cl)c1O
IC50 (Estrogen receptor): 3.11 µM (active)

O=C(O)C1Nc2c(cccc2S(=O)(=O)c2ccccc2)C2C=CCC12 (stereo unspecified)
IC50 [1]: 11 µM (active) | IC50 [2]: 56.4 µM (active) | IC50 [3]: 52.2 µM (active) | IC50 [4]: 58.7 µM (active)

O=c1[nH]c(CN2CCN(S(=O)(=O)c3ccc4ccccc4c3)CC2)nc2ccccc12
IC50 [5]: 5.56 µM (active) | IC50 [6]: > 111 µM (not active)

Cn1c(=O)[nH]c(=O)c2c1nc1n2CCCN1CCc1ccccc1
IC50 (Estrogen receptor): > 50 µM (not active) | IC50 (Estrogen receptor beta): > 50 µM (not active)

COc1ccc(-n2ncc3c(NC(C)C)ncnc32)cc1
EC50 [7]: < 0.2 µM (active) | EC50 (HT-1080): > 50 µM (not active)

Cc1cc(O)c2c(c1)C1C=CCC1C(C(=O)O)N2 (stereo unspecified)
IC50 [1]: 2.41 µM (active) | IC50 [2]: > 100 µM (not active) | IC50 [3]: > 100 µM (inactive) | IC50 [4]: > 100 µM (inactive)

O=C(CCS(=O)(=O)c1ccc(Br)cc1)N1CCN(c2ccc(F)cc2)CC1
IC50 [8]: 24.2 µM (active) | IC50 [9]: > 100 µM (inactive)

O=C(CNC(=O)c1ccc(-c2ccccc2)cc1)OCc1c(F)cccc1Cl
IC50 [5]: 11.7 µM (not active) | IC50 [6]: > 111 µM (not active)

Cc1ccccc1SCC(=O)N1CCN(c2ccc(C(F)(F)F)cn2)CC1
IC50 [8]: > 100 µM (inactive) | IC50 [9]: > 100 µM (inactive)
